Test results taken from patent US20150297639A1, “TREATING CANCER” (Rhode Island Hospital, A Lifespan-Partner, priority 2012, published 2015).

What was measured:
DU145 cell line = DU145 cell line treated with 9NC; cited from earlier work
DU145 cells = experiment: PARP cleavage Western blot, DU145 cells treated with CPT; assay type: cell-based, human; details: 100 nM CPT 24 hours, vs untreated control cells
Protocol: FIGS. 1A-D are a series of photomicrographs and bar graphs showing ECV-mediated reversal of apoptosis resistance and sensitivity. A, B. ECVs were isolated from DU145 S and DU145 R prostate cells. The ECVs were resuspended in PBS. DU145 S cells were co-cultured with DU145 R ECVs and DU145 R cells were co-cultured with DU145 S ECVs. Non-ECV and ECV co-cultured cells were treated with 100 nM of the anticancer agent camptothecin (CPT) for 24 hours and examined for PARP cleavage and actin via Western blot analysis to measure apoptosis. C, D. The same experiment from A and B was repeated and the samples were examined for apoptosis via propidium iodide staining using a flow cytometer. […]
Total cell extracts were prepared as previously described, and protein concentrations of lysates were determined using a Bradford assay kit (BioRad). […] Proteins recognized by antibodies were detected by enhanced chemilluminescence reagents (GE Healthcare).
To investigate the effects of ECV-mediated transfer of chemoresistance in prostate cancer, the mechanism of resistance to camptothecin (CPT) was studied in human prostate cancer cell lines. […] After six days, both groups were treated with CPT, cells were harvested and analyzed for apoptosis via Poly ADP Ribose Polymerase (PARP) cleavage. […] The same experiment was repeated, and the cells were analyzed for apoptosis via flow cytometry.

MDR breast cancer cells = experiment: PARP cleavage Western blot, MDR cells treated with Dox; assay type: cell-based, human; details: Dox 24 hours
Protocol: (§1) FIG. 8 is a photomicrograph showing MCF7 and MDR breast cancer cells treated with the indicated doses of doxorubicin (Dox) for 24 hours. Western blot analysis was performed to measure the cleavage of PARP (an indicator of apoptosis induction).
FIG. 9 is a photomicrograph of a Western blot analysis for PARP cleavage and actin in protein lysates isolated from MDR (resistant) cells that were co-cultured with MCF7 (sensitive) ECVs for three days then treated with the indicated concentrations of Dox.
(§2) The transfer of chemosensitivity of MCF7 (sensitive) and MCF/MDR (resistant) (MDR) breast cancer cells that are sensitive or resistant, respectively to doxorubicin (Dox) was explored. These cells, similar to the prostate cancer cells, were grown in medium with serum that was depleted of ECVs.
A reciprocal experiment was performed and ECVs from MCF-7 (sensitive) cells were isolated and co-cultured with MDR (resistant) cells for three days. The MDR (resistant) cells were treated with two doses of Dox.

MCF7 breast cancer cells = experiment: PARP cleavage Western blot, MCF7 cells treated with Dox; assay type: cell-based, human; details: Dox 24 hours
Protocol: as §1, §2

MCF-7 cells = experiment: Apoptosis by flow cytometry, MCF-7 cells treated with Dox; assay type: cell-based, human; details: 10 nM Dox 24 hours
Protocol: FIG. 10 is a bar graph showing the amount of apoptosis in MCF-7 cells that were treated with 10 nM Dox for 24 hours in the presence or absence of MDR ECVs. Cells were harvested and apoptosis measured by flow cytometry. A paired t-test was performed * comparing Dox-treated MCF7 cells and MCF7 cells co-cultured with MDR ECVs. * A paired t-test (p<0.0005) was performed comparing the reduction in soft agar colony formation between Dox treated and MCF7+MDR ECVs+Dox.
The reciprocal experiment from FIG. 9 was performed, and ECVs were isolated from MDR (resistant) cells and co-cultured with MCF7 (sensitive) cells for three days and treated with 10 nM Dox. The cells were analyzed for apoptosis induction by flow cytometry.

CC[C@@]1(O)C(=O)OCc2c1cc1n(c2=O)Cc2cc3c([N+](=O)[O-])cccc3nc2-1 [9NC, 9-nitrocamptothecin]
apoptosis (DU145 cell line): extensive apoptosis

CC[C@@]1(O)C(=O)OCc2c1cc1n(c2=O)Cc2cc3ccccc3nc2-1 [CPT, camptothecin]
PARP cleavage (DU145 cells): increase in PARP cleavage

COc1cccc2c1C(=O)c1c(O)c3c(c(O)c1C2=O)C[C@@](O)(C(=O)CO)C[C@@H]3O[C@H]1C[C@H](N)[C@H](O)[C@H](C)O1 [Dox, doxorubicin]
apoptosis measured by cleavage of PARP (MDR breast cancer cells): remained resistant
apoptosis measured by cleavage of PARP (MCF7 breast cancer cells): sensitive to dose-dependent induction of apoptosis
apoptosis (MCF-7 cells): underwent significant apoptosis
